Source: patent publication US11905268B2, “Anthranilic acid derivatives and their use in the treatment of human cancers” (UNIVERSITY OF CENTRAL FLORIDA RESEARCH FOUNDATION, INC., priority 2018, dated 2024)
Like-named read-outs stand apart in the source and are kept apart here.

How the values were obtained:
L3.6pl cells = assay: cells; format: cell-based; conditions: for IC50: Homo sapiens, L3.6pl; for L3.6pl MTC: maximum tolerated concentration where cells are >90% viable
CHO cells [1] = assay: Ant44 rescue assay in CHO cells (Assay 1); format: cell-based, Chinese hamster; conditions: for IC50 / EC50: Cricetulus griseus
Protocol: CHO K1 cells were grown in growth medium (RPMI+10% FBS+1×P/S+1% l-glutamine) to 70% confluency, washed in PBS and trypsinized. Cells were plated in assay medium (serum free RPMI+2% FBS+1×l-glutamine+1×P/S+[…] aminoguanidine) at 50000 cells/mL for 200 cells per well in 4 ul using a Thermo Multidrop Combi into a 1536-well white Aurora plate.
Ant44 is a cytotoxic polyamine, i.e., N^1-(9-anthracenyl)-homospermidine. A non-toxic PTI compound would block entry or intracellular trafficking of the Ant44 toxin and rescue the cells back to high viability. Therefore, this screen tested for compounds which rescued cells from Ant44 toxicity. […] This was followed by adding 10 uL of 10 uM Ant44 (FAC 2 uM) in assay medium with a Beckman BioRAPTR FRD dispenser or 10 uL of cells added in assay medium (positive control).

CHO cells [2] = assay: Cytotoxicity screen in CHO cells; conditions: for IC50 at 48 h: Chinese hamster, CHO K1 cells; for tox (DFMO Assay): listed with DFMO assay
Protocol: CHO K1 cells were grown in growth medium to 70% confluency and washed in PBS and trypsinized. […] Cells were spun at 100×g for 1 minute and incubated at 37° C. in a humidified CO2 incubator for 24 hours. […] Cellular ATP content was then assayed by adding 3 uL of ATPLite with a Beckman BioRAPTR FRD dispenser and incubated for 10 minutes at room temperature. Plates were spun at 200×g for 1 minute and read on a Perkin Elmer Viewlux multimode plate reader using luminescence mode. This assay was used for testing dose-response of dry powders.
CHO K1 cells were grown in growth medium to 70% confluency and washed in PBS and trypsinized. Cells were plated in assay medium at 10000 cells/mL for 200 cells per well using a Thermo Multidrop Combi in 20 uL into a white Greiner plate. Cells were spun at 100×g for 1 minute and incubated at 37° C. in a humidified CO2 incubator for 24 hours. […] This was followed by adding by 10 μL of assay medium to all wells with a Beckman BioRAPTR FRD dispenser. The plates were spun at 200×g for 1 minute and incubated at 37° C. in a humidified 5% CO2 incubator for 48 hours. Cellular ATP content was then assayed by adding 20 μL of ATPLite with a Beckman BioRAPTR FRD dispenser and incubated for 10 min at room temperature. Plates were spun at 200×g for 1 minute and read on a Perkin Elmer Envision for multimode plate reader using luminescence mode. Duplicates were run for each compound concentration, and the curves represent the average of the duplicates as percent viability.
The final compound concentration was either 20 μM or 10 μg/mL (depending upon the compound source). A successful PTI in Assay 1 would block the uptake of the toxic Ant44 probe and rescue the cells back to >90% relative growth vs an untreated control. It was critical to also evaluate the toxicity of the PTI by itself as a toxic PTI would give a false negative in Assay1 (and a false positive in Assay 2). […] Assay 2 then evaluated the ability of the compound to inhibit the uptake of a rescuing dose of Spermidine (Spd, 1 μM) into DFMO-treated CHO cells.

[3] = system: DFMO treated Chinese hamster ovary (CHO) cells; assay: DFMO/spermidine rescue assay in CHO cells (Assay 2); format: cell-based; conditions: for IC50: Cricetulus griseus
Protocol: In the reconfirmation assay compounds were run in quadruplicate. […] A PTI compound is expected to block the entry or disrupt the intracellular trafficking of spermidine and inhibit the ability of spermidine to rescue the growth or viability of DFMO treated cells.
DFMO/Spermidine assay Here cells were treated with an inhibitor of polyamine biosynthesis (DFMO) and rescued back to high viability by the presence of exogenous polyamine (spermidine). Putative PTI compounds were screened for their ability to block the entry or intracellular trafficking of exogenous spermidine (or otherwise disrupt the intracellular trafficking of spermidine) by measuring cell viability in the presence of DFMO+spermidine+PTI compound. […] This was followed by adding 10 μL of […] and 5 μM spermidine (FAC 5 mM DFMO and 1 μM spermidine) in assay medium with a Beckman BioRAPTR FRD dispenser or 10 μL of 5 mM DFMO added in assay medium (positive control). […] A PTI compound is expected to block the entry or disrupt the intracellular trafficking of spermidine and inhibit the ability of spermidine to rescue the growth or viability of DFMO treated cells Cytotoxicity

[4] = read-out: IC50 values (toxicity profile)
[5] = relative growth after 72 h, read-out: L3.6pl IC50
[6] = CHO, Table 7, read-out: SAR IC50 Ant44 assay
[7] = CHO, Table 7, read-out: SAR IC50 DFMO assay
[8] = toxic above the stated concentration, CHO cells
[9] = Table 1 HTS top hits, CHO cells, read-out: DFMO Assay IC50
[10] = Table 1 HTS top hits, CHO cells, read-out: Ant44 EC50

COc1ccccc1C(=O)Nc1ccc(N2CCN(c3ccccc3OC)CC2)cc1C(=O)O [ChemDiv F687-0882]
IC50 (L3.6pl cells; [4]): > 38 µM | IC50 (L3.6pl cells; [5]): > 50 µM | L3.6pl MTC (L3.6pl cells): 9 µM

COc1ccccc1C(=O)Nc1ccc(N2CCN(c3ccccc3)CC2)cc1C(=O)O [ChemDiv F687-0884]
IC50 (L3.6pl cells; [4]): > 38 µM | IC50 (L3.6pl cells; [5]): 46.3 ± 0.02 µM | L3.6pl MTC (L3.6pl cells): 9 µM

COc1ccc(C(=O)Nc2ccc(N3CCN(c4cc(Cl)ccc4C)CC3)cc2C(=O)O)cc1 [SBI-0754479, 5-(4-(5-chloro-2-methylphenyl)piperazin-1-yl)-2-(4-methoxybenzamido)benzoic acid]
IC50 (CHO cells [1]; [6]): > 40 µM | IC50 at 48 h (CHO cells [2]): 13 µM | IC50 (L3.6pl cells; [5]): 16.8 ± 0.1 µM | L3.6pl MTC (L3.6pl cells): 8 µM | IC50 [3, 7]: 8 µM

CCOC(=O)N1CCN(c2ccc(NC(=O)c3ccc(OC)cc3)c(C(=O)O)c2)CC1 [SBI-0800692]
IC50 (CHO cells [1]; [6]): > 40 µM | Ant44 EC40 (CHO cells [1]; Table 1, CHO cells): SBI- 0800692.0001 (EC40 at 31) μM | IC50 at 48 h (CHO cells [2]): 34 µM | tox (DFMO Assay) (CHO cells [2]; [8]): SBI- 0800692.0001 (IC50 ~20, tox >20) μM | IC50 [3, 7]: > 40 µM | IC50 [3, 9]: ~20 µM

COc1ccc(C(=O)Nc2ccc(N3CCC(C(N)=O)CC3)cc2C(=O)O)cc1 [SBI-0800693]
IC50 (CHO cells [1]; [6]): > 40 µM | Ant44 EC50 (CHO cells [1]; Table 1 HTS top hits, CHO cells): SBI- 0800693.0001 (NO EFFECT) | tox (DFMO Assay) (CHO cells [2]; [8]): SBI- 0800693.0001 (Ic50 ~10 μM, tox >10 μM) | IC50 [3, 7]: > 40 µM | IC50 [3, 9]: ~10 µM

COc1ccccc1C(=O)Nc1ccc(N2CCN(c3ccccn3)CC2)cc1C(=O)O [SBI-0801308, 2-(2-methoxybenzamido)-5-(4-(pyridin-2-yl)piperazin-1-yl)benzoic acid]
EC50 (CHO cells [1]; CHO, Table 3, read-out: Ant44 rescue EC50 CHO): 10 µM | IC50 (CHO cells [1]; [6]): 4 µM | EC50 (CHO cells [1]; [10]): 5 to 10 µM | IC50 (CHO cells [1]; Table 5B, CHO cells, read-out: Ant44 IC50): 3.6 µM | IC50 at 48 h (CHO cells [2]): 21 µM | CHO MTD EC50 (CHO cells [2]; hamster): (22) uM | MTD CHO (CHO cells [2]; hamster): ~10 µM | Tox (Ant44) (CHO cells [2]; toxic above the stated concentration, CHO cells, listed with Ant44 assay): > 31 µM | tox (DFMO Assay) (CHO cells [2]; [8]): > 20 µM | IC50 [3, 7]: > 40 µM | IC50 [3, 9]: 10 to 20 µM | Active in DFMO assay? ([3]; Table 3, in CHO): No in CHO | DFMO/CHO IC50 ([3]; Table 5B): trace

COc1ccc(C(=O)Nc2ccc(N3CCN(c4cc(Cl)ccc4C)CC3)cc2C(=O)O)c(OC)c1 [SBI-0801324, 5-(4-(5-chloro-2-methylphenyl)piperazin-1-yl)-2-(2,4-dimethoxybenzamido)benzoic acid]
IC50 (CHO cells [1]; [6]): > 40 µM | EC50 (CHO cells [1]; [10]): 31 µM | IC50 at 48 h (CHO cells [2]): > 40 µM | tox (DFMO Assay) (CHO cells [2]; [8]): Non tox | IC50 [3, 7]: > 40 µM | DFMO Assay IC40 ([3]; Table 1, CHO cells): 31 µM

COc1ccc(S(=O)(=O)Nc2ccc(N3CCN(c4cc(Cl)ccc4C)CC3)cc2C(=O)O)cc1 [SBI-0801326, 5-(4-(5-chloro-2-methylphenyl)piperazin-1-yl)-2-(4-methoxyphenylsulfonamido)benzoic acid]
IC50 (CHO cells [1]; [6]): > 40 µM | IC50 at 48 h (CHO cells [2]): > 40 µM | IC50 [3, 7]: > 40 µM

COC(=O)c1cc(N2CCN(c3cc(Cl)ccc3C)CC2)ccc1NC(=O)c1ccc(OC)cc1 [SBI-0801722, methyl 5-(4-(5-chloro-2-methylphenyl)piperazin-1-yl)-2-(4-methoxybenzamido)benzoate]
IC50 (CHO cells [1]; [6]): > 40 µM | IC50 at 48 h (CHO cells [2]): > 40 µM | IC50 [3, 7]: > 40 µM

COC(=O)c1cc(N2CCN(c3cc(Cl)ccc3C)CC2)ccc1NC(=O)c1ccc(OC)cc1OC [SBI-0801723, methyl 5-(4-(5-chloro-2-methylphenyl)piperazin-1-yl)-2-(2,4-dimethoxybenzamido)benzoate]
IC50 (CHO cells [1]; [6]): > 40 µM | IC50 at 48 h (CHO cells [2]): > 40 µM | IC50 [3, 7]: > 40 µM

COC(=O)c1cc(N2CCN(c3cc(Cl)ccc3C)CC2)ccc1NC(=O)c1ccccc1OC [SBI-0801724, methyl 5-(4-(5-chloro-2-methylphenyl)piperazin-1-yl)-2-(2-methoxybenzamido)benzoate]
IC50 (CHO cells [1]; [6]): > 40 µM | IC50 at 48 h (CHO cells [2]): > 40 µM | IC50 [3, 7]: > 40 µM

COc1ccccc1C(=O)Nc1ccc(N2CCN(Cc3ccccc3)CC2)cc1C(=O)O [SBI-0814414, 5-(4-benzylpiperazin-1-yl)-2-(2-methoxybenzamido)benzoic acid]
IC50 (CHO cells [1]; [6]): > 40 µM | IC50 at 48 h (CHO cells [2]): > 40 µM | IC50 [3, 7]: > 40 µM

COc1ccccc1C(=O)Nc1ccc(N2CCN(CCc3ccccc3)CC2)cc1C(=O)O [SBI-0814415, 2-(2-methoxybenzamido)-5-(4-phenethylpiperazin-1-yl)benzoic acid]
IC50 (CHO cells [1]; [6]): > 40 µM | IC50 at 48 h (CHO cells [2]): > 40 µM | IC50 [3, 7]: > 40 µM

COc1ccccc1C(=O)Nc1ccc(N2CCN(CCCc3ccccc3)CC2)cc1C(=O)O [SBI-0814416, 2-(2-methoxybenzamido)-5-(4-(3-phenylpropyl)piperazin-1-yl)benzoic acid]
IC50 (CHO cells [1]; [6]): > 40 µM | IC50 at 48 h (CHO cells [2]): > 40 µM | IC50 [3, 7]: > 40 µM

COc1ccccc1C(=O)Nc1ccc(N2CCN(c3ccccn3)CC2)cc1 [SBI-0814417, 2-methoxy-N-(4-(4-(pyridin-2-yl)piperazin-1-yl)phenyl)benzamide]
IC50 (CHO cells [1]; [6]): > 40 µM | IC50 at 48 h (CHO cells [2]): 14 µM | IC50 [3, 7]: > 40 µM

COC(=O)c1cc(CN2CCN(c3ccccn3)CC2)ccc1NC(=O)c1ccccc1OC [SBI-0814422, Methyl 2-(2-methoxybenzamido)-5-((4-(pyridin-2-yl)piperazin-1-yl)methyl)benzoate]
IC50 (CHO cells [1]; [6]): > 20 µM | IC50 at 48 h (CHO cells [2]): > 20 µM | IC50 [3, 7]: > 20 µM

COc1ccccc1C(=O)Nc1ccc(CN2CCN(c3ccccn3)CC2)cc1C(=O)O [SBI-0814423, 2-(2-Methoxybenzamido)-5-((4-(pyridin-2-yl)piperazin-1-yl)methyl)benzoic acid]
IC50 (CHO cells [1]; [6]): > 40 µM | IC50 at 48 h (CHO cells [2]): > 40 µM | IC50 [3, 7]: > 40 µM

COc1ccccc1C(=O)Nc1ccc(N2CCN(C(=O)c3ccccn3)CC2)cc1C(=O)O [SBI-0814424, 2-(2-methoxybenzamido)-5-(4-picolinoylpiperazin-1-yl)benzoic acid]
IC50 (CHO cells [1]; [6]): > 40 µM | IC50 at 48 h (CHO cells [2]): > 40 µM | IC50 [3, 7]: > 40 µM
